Test results as given in paper PMC9585581, “Developing Photoaffinity Probes for Dopamine Receptor D2 to Determine Targets of Parkinson’s Disease Drugs” (ACS Chemical Neuroscience, 2022).
pEC50: −log10 of the molar value.

Legend:
human DRD2, long form = target: T1, human DRD2, long form (Homo sapiens, UniProt P14416); assay: Intracellular Ca2+ mobilization assay (HEK293T stably expressing DRD2, chimeric G-protein Gqi5, calcium dye, confocal microscopy); type: cell-based; details: for pEC50: Ca assay, HEK293T stably expressing human DRD2 and chimeric G-protein, Hill slope of 1.0; for activity in calcium flux assay (in words): calcium flux bioactivity
T1 construct: expressed in transfected cells; Gqi5 chimera transiently transfected
Protocol: Intracellular calcium measurement was used to determine G-protein-mediated signaling by DRD2. Because DRD2 is linked to the G-protein subtype Gi, agonist binding inhibits adenyl cyclase activity.[42] To mitigate this effect, we created an HEK293T cell line stably expressing human DRD2, long form, and a chimeric G-protein, Gqi, which alters the DRD2 receptor’s G-protein coupling so that signaling can occur through Gq, resulting in an intracellular calcium flux.[43] The assay is performed by first loading the cell line with a calcium-sensing dye. Binding of the ligand to the receptor results in an influx of calcium to the cytoplasm, which can be characterized in real time by monitoring the increase in dye fluorescence with confocal microscopy.
Figure 2 Intracellular calcium flux assay. HEK293T cell line stably expressing constructs for human DRD2 and a chimeric G-protein is loaded with calcium-sensing dye, […]. After dosing the probe, confocal microscopy is used to determine the calcium flux in the cell by change in dye fluorescence.
A stable HEK293T-derived cell line-expressing DRD2-Strep Tag II fusion was maintained in DMEM supplemented with 10% FBS, 100 U/mL penicillin, and 100 μg/mL streptomycin in a humidified atmosphere at 37 °C in 5% CO2. On day 1, cells were plated at a density of 4 × 10^4 cells/cm^2 in a poly-D-lysine-coated 18-well chambered coverslip (Ibidi). The following day (day 2), cells were transfected with a 10× solution of 3:1 mixture of Gqi5/Optifect Transfection Reagent (Thermo) in unsupplemented DMEM. On day 3, the transfection media was removed and calcium-sensitive dye loading was performed following the protocol of the Fluo-4 Direct Calcium Assay Kit (Invitrogen). 5× drug stimulation solutions were prepared in filter-sterilized HBSS. Once Fluo-4 loading was complete, a time series acquisition at a rate of 1 fps was recorded using a Zeiss LSM 980 with Airyscan 2. Basal fluorescence was recorded for 20 s, followed by the addition of drug solution to a 1× final concentration and acquisition for an additional 40 s. Results in the form of fold fluorescence increase over basal were averaged over 50 cells in ImageJ (NIH), and GraphPad Prism was used for the analysis of data.

DRD2 = DRD2 (Homo sapiens, UniProt P14416); assay: Western blot analysis of DRD2-probe binding with competition by parent pharmacophore; design: expressed in transfected cells; details: probe 100 nm; for competition with parent pharmacophore (Western blot): competitor (ropinirole or pramipexole) 50 μM; for photo-cross-linking / colocalization with DRD2 band (Western blot): membrane fraction enriched via Strep Tag II
Description: To observe the photo-cross-linking of DRD2 at the protein level, we analyzed the colocalization of DRD2 by clicking a fluorophore on the probe and performing Western blots. We further observed the competition with the parent pharmacophore of each probe and the ability of a negative control benzophenone (16) to cross-link to DRD2. Our DRD2-expressing cells or unmodified 293T cells (control group) were suspended in media, treated with the probe at a 100 nm concentration, and photo-cross-linked. The cells were then lysed, and the membrane fraction was separated and enriched for DRD2 by pulldown of the Strep Tag II fusion using magnetic beads. After “clicking” a fluorescent tag to the probe, the membrane fraction was run on an SDS-PAGE gel, transferred to a nitrocellulose membrane, and treated with antibodies against DRD2 and Strep Tag II. […] We also observed many nonspecific binding bands for the probe, which is consistent with our other studies, as well as the observations of the field when it relates to photo-cross-linking groups. […] With this confirmation, we proceeded to proteomic analysis of probe interactions.
Figure 6 Photo-cross-linking of probes 5 and 7 to DRD2 visualized with Western blot. Lanes 1–5 correspond to samples with probe 5 at 100 nm, lanes 6–10 correspond to samples treated with probe 7 at 100 nm, and lanes 11–14 correspond to samples treated with negative control probe 16. Lanes: 1, 6, and 11 are the anti-DRD2 antibody channel, lanes 2, 3, 7, 8, and 12 are fluorescence of the Alexa Fluor 555 clicked to the probes 5, 7, or 16, lanes 4, 9, and 13 are the anti-Strep Tag antibody channel, and lanes 5, 10, and 14 are the overlaid channels for the respective probes.
A stable HEK293T-derived cell line-expressing DRD2-Strep Tag II fusion was maintained in DMEM supplemented with 10% FBS, 100 U/mL penicillin, and 100 μg/mL streptomycin in a humidified atmosphere at 37 °C in 5% CO2. Cells were plated at a density of 4 × 10^4 cells/cm^2 in T300 tissue culture flasks (CellTreat) and allowed to grow to an 80% confluency. At confluency, media was removed and cells were washed once with cold HBSS, followed by incubation for 15 min in cold HBSS with 0.53 mM EDTA. Following incubation, cells were scraped off of the bottom of the flask and the cell suspension was transferred to a 15 mL conical tube and then pelleted at 500g for 5 min. The supernatant was removed, and the cell pellet was resuspended in HBSS followed by centrifugation at 500g for 5 min. […] The supernatant of the cell pellet was removed, and the cells were resuspended in probe solution and incubated at room temperature for 2 min followed by centrifugation at 500g for 5 min. The cell pellet was resuspended in either HBSS or 50 μM competitor solution in HBSS and irradiated with a 365 nm UV lamp (8 W, 2 cm distance) for 30 min at room temperature. The cells were then pelleted at 500g for 5 min, and the supernatant was removed. Membrane fractionation was performed following the MEM-PER Membrane Protein Extraction Kit (Thermo). The solubilized membrane fraction was incubated with hydrophilic streptavidin magnetic beads (NEB) for 1 h at room temperature. The flow-through was removed, and the beads were washed twice with PBS. […]

Chain of DRD2 (P14416 whole entry): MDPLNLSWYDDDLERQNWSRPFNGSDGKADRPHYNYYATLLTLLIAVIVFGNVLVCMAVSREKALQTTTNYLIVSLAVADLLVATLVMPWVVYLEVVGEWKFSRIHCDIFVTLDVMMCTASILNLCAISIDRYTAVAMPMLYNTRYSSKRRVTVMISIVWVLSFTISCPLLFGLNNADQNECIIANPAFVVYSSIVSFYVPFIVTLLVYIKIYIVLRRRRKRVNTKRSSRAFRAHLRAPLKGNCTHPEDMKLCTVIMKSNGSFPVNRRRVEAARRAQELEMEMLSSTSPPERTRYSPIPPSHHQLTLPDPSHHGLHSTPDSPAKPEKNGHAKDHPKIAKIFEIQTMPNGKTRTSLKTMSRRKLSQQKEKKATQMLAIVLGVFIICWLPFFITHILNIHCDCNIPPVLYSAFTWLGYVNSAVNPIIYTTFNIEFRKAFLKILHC
T1 sequence (P14416 whole entry): as above

Row | pEC50 (human DRD2, long form) | activity in calcium flux assay (in words) (human DRD2, long form) | competition with parent pharmacophore (Western blot) (DRD2) | photo-cross-linking / colocalization with DRD2 band (Western blot) (DRD2) | difference in potency of probe vs parent compound (human DRD2, long form; calcium assay, 5 vs ropinirole) [×] | SMILES
1 | 5.66 | low micromolar potency | greatly diminish the binding | binding to the DRD2 receptor |  | C#CCOc1ccc(C(=O)c2ccc(CN[C@H]3CCc4nc(N)sc4C3)cc2)cc1 [Compound 7, (S)-(4-(((2-Amino-4,5,6,7-tetrahydrobenzo[d]thiazol-6-yl)amino)methyl)phenyl)(4-(prop-2-yn-1-yloxy)phenyl)methanone]
2 | 5.78 | low micromolar potency | greatly diminish the binding | binding to the DRD2 receptor | ~10 | C#CCOc1ccc(C(=O)c2ccc(CNCCc3cccc4c3CC(=O)N4)cc2)cc1 [Compound 5, 4-(2-((4-(4-(Prop-2-yn-1-yloxy)benzoyl)benzyl)amino)ethyl)indolin-2-one]
